This note sets out measurements from ChEMBL document CHEMBL2331453, “Arundinols A-C and arundinones A and B from the plant endophytic fungus Microsphaeropsis arundinis” (J Nat Prod, 2013).

pIC50: −log10 of the molar value. ≈ marks a conversion by molar mass, not a printed value.

One experiment deals with T-24. Put plainly: Cytotoxicity against human T24 cells after 48 hrs by MTS assay. The following applies: T-24, 48 h. The experiment is classed as functional, cell-based.
A further experiment concerns A549. The experiment is described as follows: Cytotoxicity against human A549 cells after 48 hrs by MTS assay. The experiment is classed as functional, cell-based. The conditions noted are these: A549, 48 h. In general terms: Formazan colour is commonly taken as a measure of viable cells.
The subject of a further experiment is Staphylococcus aureus. Put plainly: Antibacterial activity against Staphylococcus aureus ATCC 6538 after 24 hrs. It counts as functional. The following applies: ATCC 6538, 24 h.

For `COc1c(O)c(-c2c(O)c(OC)c(OC)c3c2OC(C)(O)C3=O)c2c(c1OC)C(=O)C(C)(O)O2` (centres undefined) [ARUNDINONE B], the negative-log IC50 (pIC50) with T-24 was 4.45; with A549, 4.09. `C=C(C)[C@@H]1CC[C@]2(C)C(=C(C)C(=O)C[C@H]2O)C1` [LIGUCYPERONOL] showed a minimal inhibitory concentration (MIC) with Staphylococcus aureus of 11.4 µg/mL (≈ 48.6 µM). As to `CC1(C)S[C@@H]2[C@H](NC(=O)[C@H](N)c3ccccc3)C(=O)N2[C@H]1C(=O)O` [AMPICILLIN], the minimum inhibitory concentration (MIC) with Staphylococcus aureus came out at 0.46 µg/mL (≈ 1.32 µM).

What is called pIC50 is the IC50 on a negative log10 scale, so that one unit is a factor of ten. A higher pIC50 goes with a low IC50. The MIC is the smallest concentration in the dilution series that meets the test's criterion for growth inhibition. A higher MIC goes with a need for much substance.
